Test system: rodent lifetime carcinogenesis bioassay, tumor incidence TD50
Assay: chronic cancer bioassays in animals – CPDB, compiled studies (AID 1745844)
Details: in feed

Question: For `OCC(CO)(CBr)CBr`, which TD50 (mouse, strain B6C3F1, females, site: Harderian gland + lung + subcutaneous tissue, lesion: adenoma + adenoma, bilateral + carcinoma + alveolar/bronchiolar adenoma + alveolar/bronchiolar carcinoma + fibrosarcoma + sarcoma, dosed 104 weeks, study length 106 weeks) is on record?
Answer: 67.8 mg/kg/day

Question: What about the TD50 (mouse, strain B6C3F1, females, site: Harderian gland, lesion: adenoma + adenoma, bilateral + carcinoma, dosed 104 weeks, study length 106 weeks) of the same compound?
Answer: 122 mg/kg/day

Question: What about the TD50 (mouse, strain B6C3F1, females, site: Harderian gland, lesion: adenoma + adenoma, bilateral, dosed 104 weeks, study length 106 weeks) of the same compound?
Answer: 187 mg/kg/day

Question: And the TD50 (mouse, strain B6C3F1, females, site: Harderian gland, lesion: carcinoma, dosed 104 weeks, study length 106 weeks)?
Answer: 323 mg/kg/day

Question: What about the TD50 (mouse, strain B6C3F1, females, site: all sites, lesion: hemangioma + hemangiosarcoma, dosed 104 weeks, study length 106 weeks) of the same compound?
Answer: 846 mg/kg/day

Question: What about the TD50 (mouse, strain B6C3F1, females, site: all sites, lesion: hemangiosarcoma, dosed 104 weeks, study length 106 weeks) of the same compound?
Answer: 1480 mg/kg/day

Question: What about the TD50 (mouse, strain B6C3F1, females, site: any site (literature study), lesion: several types, types named in the paper, dosed 104 weeks, study length 106 weeks) of the same compound?
Answer: 57.3 mg/kg/day

Question: What about the TD50 (mouse, strain B6C3F1, females, site: forestomach, lesion: squamous-cell papilloma, dosed 104 weeks, study length 106 weeks) of the same compound?
Answer: 446 mg/kg/day

Question: What about the TD50 (mouse, strain B6C3F1, females, site: liver, lesion: hepatocellular adenoma + hepatoblastoma + hepatocellular carcinoma, dosed 104 weeks, study length 106 weeks) of the same compound?
Answer: 267 mg/kg/day

Question: What about the TD50 (mouse, strain B6C3F1, females, site: liver, lesion: hepatocellular adenoma, dosed 104 weeks, study length 106 weeks) of the same compound?
Answer: 301 mg/kg/day

Question: And the TD50 (mouse, strain B6C3F1, females, site: lung, lesion: alveolar/bronchiolar adenoma + alveolar/bronchiolar carcinoma, dosed 104 weeks, study length 106 weeks)?
Answer: 127 mg/kg/day

Question: And the TD50 (mouse, strain B6C3F1, females, site: lung, lesion: alveolar/bronchiolar adenoma, dosed 104 weeks, study length 106 weeks)?
Answer: 171 mg/kg/day

Question: What about the TD50 (mouse, strain B6C3F1, females, site: lung, lesion: alveolar/bronchiolar carcinoma, dosed 104 weeks, study length 106 weeks) of the same compound?
Answer: 398 mg/kg/day

Question: What about the TD50 (mouse, strain B6C3F1, females, site: mammary gland, lesion: carcinoma, dosed 104 weeks, study length 106 weeks) of the same compound?
Answer: 1480 mg/kg/day

Question: What about the TD50 (mouse, strain B6C3F1, females, site: subcutaneous tissue, lesion: fibrosarcoma + sarcoma, dosed 104 weeks, study length 106 weeks) of the same compound?
Answer: 322 mg/kg/day

Question: What about the TD50 (mouse, strain B6C3F1, females, site: subcutaneous tissue, lesion: sarcoma, dosed 104 weeks, study length 106 weeks) of the same compound?
Answer: 350 mg/kg/day

Question: What about the TD50 (mouse, strain B6C3F1, males, site: Harderian gland + kidney + lung, lesion: adenoma + adenoma, bilateral + carcinoma + carcinoma, bilateral + tubule adenoma + alveolar/bronchiolar adenoma + alveolar/bronchiol, dosed 104 weeks, study length 105 weeks) of the same compound?
Answer: 106 mg/kg/day

Question: What about the TD50 (mouse, strain B6C3F1, males, site: Harderian gland, lesion: adenoma + adenoma, bilateral + carcinoma + carcinoma, bilateral, dosed 104 weeks, study length 105 weeks) of the same compound?
Answer: 155 mg/kg/day

Question: And the TD50 (mouse, strain B6C3F1, males, site: Harderian gland, lesion: adenoma + adenoma, bilateral, dosed 104 weeks, study length 105 weeks)?
Answer: 191 mg/kg/day

Question: What about the TD50 (mouse, strain B6C3F1, males, site: any site (literature study), lesion: several types, types named in the paper, dosed 104 weeks, study length 105 weeks) of the same compound?
Answer: 126 mg/kg/day

Question: What about the TD50 (mouse, strain B6C3F1, males, site: forestomach, lesion: squamous-cell carcinoma + squamous-cell papilloma, dosed 104 weeks, study length 105 weeks) of the same compound?
Answer: 581 mg/kg/day

Question: And the TD50 (mouse, strain B6C3F1, males, site: kidney, lesion: tubule adenoma, dosed 104 weeks, study length 105 weeks)?
Answer: 1190 mg/kg/day

Question: And the TD50 (mouse, strain B6C3F1, males, site: liver, lesion: hepatocellular adenoma + hepatoblastoma + hepatocellular carcinoma, dosed 104 weeks, study length 105 weeks)?
Answer: 2480 mg/kg/day

Question: What about the TD50 (mouse, strain B6C3F1, males, site: lung, lesion: alveolar/bronchiolar adenoma + alveolar/bronchiolar carcinoma, dosed 104 weeks, study length 105 weeks) of the same compound?
Answer: 218 mg/kg/day

Question: What about the TD50 (mouse, strain B6C3F1, males, site: lung, lesion: alveolar/bronchiolar adenoma, dosed 104 weeks, study length 105 weeks) of the same compound?
Answer: 270 mg/kg/day

Question: What about the TD50 (mouse, strain B6C3F1, males, site: lung, lesion: alveolar/bronchiolar carcinoma, dosed 104 weeks, study length 105 weeks) of the same compound?
Answer: 334 mg/kg/day

Question: What about the TD50 (mouse, strain B6C3F1, males, site: thyroid gland, lesion: follicular-cell adenoma, dosed 104 weeks, study length 105 weeks) of the same compound?
Answer: 835 mg/kg/day

Question: What about the TD50 (rat, strain Fischer 344, females, site: all sites, lesion: mononuclear-cell leukemia, dosed 104 weeks, study length 105 weeks) of the same compound?
Answer: 406 mg/kg/day

Question: And the TD50 (rat, strain Fischer 344, females, site: any site (literature study), lesion: several types, types named in the paper, dosed 104 weeks, study length 105 weeks)?
Answer: 94.4 mg/kg/day

Question: And the TD50 (rat, strain Fischer 344, females, site: esophagus + mammary gland + palate + thyroid gland + tongue, lesion: squamous-cell papilloma + adenoma + carcinoma + fibroadenoma + squamous-cell carcinoma + follicular-cell adenoma + follicular-cell c, dosed 104 weeks, study length 105 weeks)?
Answer: 84.3 mg/kg/day

Question: And the TD50 (rat, strain Fischer 344, females, site: esophagus, lesion: squamous-cell papilloma, dosed 104 weeks, study length 105 weeks)?
Answer: 1410 mg/kg/day

Question: And the TD50 (rat, strain Fischer 344, females, site: mammary gland, lesion: adenoma + carcinoma + fibroadenoma, dosed 104 weeks, study length 105 weeks)?
Answer: 83.8 mg/kg/day

Question: What about the TD50 (rat, strain Fischer 344, females, site: mammary gland, lesion: adenoma + fibroadenoma, dosed 104 weeks, study length 105 weeks) of the same compound?
Answer: 83 mg/kg/day

Question: And the TD50 (rat, strain Fischer 344, females, site: mammary gland, lesion: fibroadenoma, dosed 104 weeks, study length 105 weeks)?
Answer: 83 mg/kg/day

Question: And the TD50 (rat, strain Fischer 344, females, site: palate + tongue, lesion: squamous-cell carcinoma + squamous-cell papilloma, dosed 104 weeks, study length 105 weeks)?
Answer: 1010 mg/kg/day

Question: What about the TD50 (rat, strain Fischer 344, females, site: palate + tongue, lesion: squamous-cell papilloma, dosed 104 weeks, study length 105 weeks) of the same compound?
Answer: 1240 mg/kg/day

Question: What about the TD50 (rat, strain Fischer 344, females, site: pituitary gland, lesion: pars distalis adenoma, dosed 104 weeks, study length 105 weeks) of the same compound?
Answer: 300 mg/kg/day

Question: What about the TD50 (rat, strain Fischer 344, females, site: subcutaneous tissue, lesion: fibrosarcoma + fibroma + sarcoma, dosed 104 weeks, study length 105 weeks) of the same compound?
Answer: 1370 mg/kg/day

Question: And the TD50 (rat, strain Fischer 344, females, site: subcutaneous tissue, lesion: fibrosarcoma + sarcoma, dosed 104 weeks, study length 105 weeks)?
Answer: 4200 mg/kg/day

Question: And the TD50 (rat, strain Fischer 344, females, site: thyroid gland, lesion: follicular-cell adenoma + follicular-cell carcinoma, dosed 104 weeks, study length 105 weeks)?
Answer: 1670 mg/kg/day

Question: And the TD50 (rat, strain Fischer 344, females, site: thyroid gland, lesion: follicular-cell adenoma, dosed 104 weeks, study length 105 weeks)?
Answer: 2160 mg/kg/day

Question: And the TD50 (rat, strain Fischer 344, females, site: tongue, lesion: squamous-cell carcinoma + squamous-cell papilloma, dosed 104 weeks, study length 105 weeks)?
Answer: 1260 mg/kg/day

Question: And the TD50 (rat, strain Fischer 344, females, site: tongue, lesion: squamous-cell papilloma, dosed 104 weeks, study length 105 weeks)?
Answer: 1360 mg/kg/day

Question: And the TD50 (rat, strain Fischer 344, females, site: uterus, lesion: endometrial stromal polyp + endometrial stromal sarcoma, dosed 104 weeks, study length 105 weeks)?
Answer: 859 mg/kg/day

Question: What about the TD50 (rat, strain Fischer 344, females, site: uterus, lesion: endometrial stromal polyp, dosed 104 weeks, study length 105 weeks) of the same compound?
Answer: 904 mg/kg/day

Question: And the TD50 (rat, strain Fischer 344, males, site: Zymbal's gland, lesion: adenoma + carcinoma + carcinoma, bilateral, dosed 12 weeks, study length 103 weeks)?
Answer: 138 mg/kg/day

Question: And the TD50 (rat, strain Fischer 344, males, site: Zymbal's gland, lesion: adenoma + carcinoma, dosed 104 weeks, study length 105 weeks)?
Answer: 1600 mg/kg/day

Question: And the TD50 (rat, strain Fischer 344, males, site: Zymbal's gland, lesion: adenoma, dosed 104 weeks, study length 105 weeks)?
Answer: 1950 mg/kg/day

Question: And the TD50 (rat, strain Fischer 344, males, site: Zymbal's gland, lesion: carcinoma + carcinoma, bilateral, dosed 12 weeks, study length 103 weeks)?
Answer: 138 mg/kg/day

Question: What about the TD50 (rat, strain Fischer 344, males, site: all sites + colon + esophagus + gingiva + jejunum + lung + mammary gland + palate + skin + subcutaneous tissue + thyroid gland + tongue + urinar, lesion: mononuclear-cell leukemia + mesothelioma, malignant + adenomatous polyp + squamous-cell papilloma + squamous-cell carcinoma + carc, dosed 104 weeks, study length 105 weeks) of the same compound?
Answer: 68.1 mg/kg/day

Question: And the TD50 (rat, strain Fischer 344, males, site: all sites, lesion: mesothelioma, malignant, dosed 12 weeks, study length 103 weeks)?
Answer: 28.4 mg/kg/day

Question: What about the TD50 (rat, strain Fischer 344, males, site: all sites, lesion: mesothelioma, malignant, dosed 104 weeks, study length 105 weeks) of the same compound?
Answer: 335 mg/kg/day

Question: And the TD50 (rat, strain Fischer 344, males, site: all sites, lesion: mononuclear-cell leukemia, dosed 12 weeks, study length 103 weeks)?
Answer: 22.5 mg/kg/day

Question: What about the TD50 (rat, strain Fischer 344, males, site: all sites, lesion: mononuclear-cell leukemia, dosed 104 weeks, study length 105 weeks) of the same compound?
Answer: 95.8 mg/kg/day

Question: What about the TD50 (rat, strain Fischer 344, males, site: any site (literature study), lesion: several types, types named in the paper, dosed 12 weeks, study length 103 weeks) of the same compound?
Answer: 6.25 mg/kg/day

Question: And the TD50 (rat, strain Fischer 344, males, site: any site (literature study), lesion: several types, types named in the paper, dosed 104 weeks, study length 105 weeks)?
Answer: 63.8 mg/kg/day

Question: What about the TD50 (rat, strain Fischer 344, males, site: colon + rectum, lesion: adenomatous polyp + carcinoma, dosed 12 weeks, study length 103 weeks) of the same compound?
Answer: 146 mg/kg/day

Question: And the TD50 (rat, strain Fischer 344, males, site: colon + rectum, lesion: adenomatous polyp, dosed 12 weeks, study length 103 weeks)?
Answer: 152 mg/kg/day

Question: What about the TD50 (rat, strain Fischer 344, males, site: colon, lesion: adenomatous polyp, dosed 104 weeks, study length 105 weeks) of the same compound?
Answer: 997 mg/kg/day

Question: What about the TD50 (rat, strain Fischer 344, males, site: esophagus, lesion: squamous-cell papilloma, dosed 104 weeks, study length 105 weeks) of the same compound?
Answer: 1390 mg/kg/day

Question: And the TD50 (rat, strain Fischer 344, males, site: forestomach, lesion: squamous-cell papilloma, dosed 12 weeks, study length 103 weeks)?
Answer: 217 mg/kg/day

Question: What about the TD50 (rat, strain Fischer 344, males, site: forestomach, lesion: squamous-cell papilloma, dosed 104 weeks, study length 105 weeks) of the same compound?
Answer: 16000 mg/kg/day

Question: And the TD50 (rat, strain Fischer 344, males, site: gingiva + palate + tongue, lesion: squamous-cell carcinoma + squamous-cell papilloma, dosed 104 weeks, study length 105 weeks)?
Answer: 285 mg/kg/day

Question: What about the TD50 (rat, strain Fischer 344, males, site: ileum + jejunum, lesion: carcinoma + adenomatous polyp, dosed 12 weeks, study length 103 weeks) of the same compound?
Answer: 363 mg/kg/day

Question: And the TD50 (rat, strain Fischer 344, males, site: ileum + jejunum, lesion: carcinoma, dosed 12 weeks, study length 103 weeks)?
Answer: 445 mg/kg/day

Question: And the TD50 (rat, strain Fischer 344, males, site: jejunum, lesion: carcinoma, dosed 104 weeks, study length 105 weeks)?
Answer: 5660 mg/kg/day
